# Laboratory results published in patent US12528801B2 (Givaudan SA, priority 2019, dated 2026).
# Target: T1, hTRPM8 (Homo sapiens, UniProt Q7Z2W7)
# T1 construct: expressed in transfected cells
# Assay: Assay on TRPM8 modulators: calcium imaging (Fluo-4, Flexstation) in HEK293 cell line stably expressing hTRPM8
# Assay type: cell-based
# Conditions: HEK293 cells stably expressing hTRPM8; calcium influx, Fluo-4, Flexstation 3; sigmoidal dose-response fit
# Procedure: A HEK293 cell line stably expressing hTRPM8 was generated according to Klein of at, (Chem. Senses 36: […], 2011) and receptor activation was monitored by calcium imaging in a Flexstation. For Ca-imaging assays of TRPM8 channel activation, cells were seeded on day 0 at a density of 12000 cells per well in Dulbecco's modified Eagle medium (DMEM) containing 9% foetal bovine serum in black, clear bottom 96-well plates that had been coated with 0.001% polyethyleneimine (molecular weight=60 000, Acros Organics). On day 2, agonists were evaluated via calcium imaging using Fluo-4. Briefly, growth medium was discarded, and the cells were incubated in the dark for 1 h at 37° C. in 50 μL loading buffer consisting of 2.7 μM Fluo-4 AM (Invitrogen) and […] probenecid (Sigma-Aldrich) in DMEM (without serum). After incubation, the plates were washed five times with 100 μL of assay buffer (in mM: 130 NaCl, 5 KCl, 10 HEPES, 2 CaCl2, and 10 glucose, pH7.4.) and further incubated in the dark at room temperature for 30 min. The cells were then washed five times with 100 μL assay buffer and then calcium influx to serial dilutions of inventive compounds were measured in a Flexstation 3 (Molecular Devices). Receptor activation was initiated following addition of 20 μl of a 10-fold concentrated ligand stock solution, which is also prepared in assay buffer. Fluorescence was continuously monitored for 15 seconds prior to ligand addition and for 105 seconds after ligand addition, for a total of 120 seconds. Maximal receptor activation in relation to solvent control and relative to 31.6 μM menthol is determined. Data from serial dilutions were processed with a KNIME workflow to fit a sigmoidal dose-response curve and to extrapolate […].
# T1 sequence (Q7Z2W7 whole entry): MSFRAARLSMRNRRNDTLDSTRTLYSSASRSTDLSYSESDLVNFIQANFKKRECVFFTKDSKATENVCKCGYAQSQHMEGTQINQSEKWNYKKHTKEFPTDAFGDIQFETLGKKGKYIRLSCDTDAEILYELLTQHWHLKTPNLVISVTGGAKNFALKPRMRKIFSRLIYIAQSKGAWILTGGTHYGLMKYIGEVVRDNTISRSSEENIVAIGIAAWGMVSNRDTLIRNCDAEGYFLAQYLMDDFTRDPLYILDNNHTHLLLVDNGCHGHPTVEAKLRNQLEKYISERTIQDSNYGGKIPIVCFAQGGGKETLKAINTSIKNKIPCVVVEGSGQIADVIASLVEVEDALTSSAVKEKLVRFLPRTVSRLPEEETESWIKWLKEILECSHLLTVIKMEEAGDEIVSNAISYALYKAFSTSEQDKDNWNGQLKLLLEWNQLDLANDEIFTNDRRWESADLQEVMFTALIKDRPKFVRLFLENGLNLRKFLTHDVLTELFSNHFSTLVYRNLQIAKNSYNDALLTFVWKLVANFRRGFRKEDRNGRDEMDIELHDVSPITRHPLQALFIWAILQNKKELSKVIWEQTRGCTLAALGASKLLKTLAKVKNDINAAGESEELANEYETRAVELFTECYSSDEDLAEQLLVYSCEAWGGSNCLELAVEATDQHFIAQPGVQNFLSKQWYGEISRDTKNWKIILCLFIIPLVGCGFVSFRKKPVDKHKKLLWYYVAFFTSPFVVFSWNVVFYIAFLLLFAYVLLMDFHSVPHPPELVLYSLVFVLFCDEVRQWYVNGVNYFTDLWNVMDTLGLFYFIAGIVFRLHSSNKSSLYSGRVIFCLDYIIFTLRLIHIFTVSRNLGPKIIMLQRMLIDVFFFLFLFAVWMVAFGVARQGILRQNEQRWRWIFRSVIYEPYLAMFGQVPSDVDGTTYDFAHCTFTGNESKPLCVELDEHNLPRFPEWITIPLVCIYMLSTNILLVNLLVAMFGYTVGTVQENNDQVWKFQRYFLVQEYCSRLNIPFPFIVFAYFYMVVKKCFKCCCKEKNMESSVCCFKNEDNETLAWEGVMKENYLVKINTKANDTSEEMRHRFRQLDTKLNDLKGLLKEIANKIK
row,EC50 [nM],SMILES
1,300 to 1000,"CSc1cc(C)c(-c2cnc(C3CCCCN3C(=O)C(C)SC)[nH]2)cn1 (stereo not drawn) [Compound 82, 1-(2-(5-(4-methyl-6-(methylthio)pyridin-3-yl)-1H-imidazol-2-yl)piperidin-1-yl)-2-(methylthio)propan-1-one]"
2,50 to 300,"COCc1cc(-c2cnc(C3CCCCN3C(=O)C(C)SC)[nH]2)cs1 (stereo not drawn) [Compound 83, 1-(2-(5-(5-(methoxymethyl)thiophen-3-yl)-1H-imidazol-2-yl)piperidin-1-yl)-2-(methylthio)propan-1-one]"
3,50 to 300,"COc1ccc(-c2cnc(C3CCCCN3C(=O)C(C)SC)[nH]2)cn1 (stereo not drawn) [Compound 84, 1-(2-(5-(6-methoxypyridin-3-yl)-1H-imidazol-2-yl)piperidin-1-yl)-2-(methylthio)propan-1-one]"
4,< 50,"CSC(C)C(=O)N1CCCCC1c1ncc(-c2ccc3c(c2)OCO3)[nH]1 (stereo not drawn) [Compound 85, 1-(2-(5-(benzo[d][1,3]dioxol-5-yl)-1H-imidazol-2-yl)piperidin-1-yl)-2-(methylthio)propan-1-one]"
5,50 to 300,"CCC(=O)N1CCCCC1c1ncc(-c2ccc(C)cc2)[nH]1 (stereo not drawn) [Compound 86, 1-(2-(5-(p-tolyl)-1H-imidazol-2-yl)piperidin-1-yl)propan-1-one]"
6,1000 to 35000,"CSC(C)C(=O)N1CCCCC1c1ncc(Cc2ccccc2)[nH]1 (stereo not drawn) [Compound 87, 1-(2-(5-benzyl-1H-imidazol-2-yl)piperidin-1-yl)-2-(methylthio)propan-1-one]"
7,300 to 1000,"CSC(C)C(=O)N1CCCCC1c1ncc(Br)[nH]1 (stereo not drawn) [Compound 88, 1-(2-(5-bromo-1H-imidazol-2-yl)piperidin-1-yl)-2-(methylthio)propan-1-one]"
8,300 to 1000,"CSC(C)C(=O)N1CCCCC1c1ncc(-c2ccccc2C#N)[nH]1 (stereo not drawn) [Compound 89, 2-(2-(1-(2-(methylthio)propanoyl)piperidin-2-yl)-1H-imidazol-5-yl)benzonitrile]"
9,50 to 300,"Cc1ccc(C(C)C(=O)N2CCCCC2c2nc(-c3ccccc3)c[nH]2)o1 (stereo not drawn) [Compound 91, 2-(5-methylfuran-2-yl)-1-(2-(4-phenyl-1H-imidazol-2-yl)piperidin-1-yl)propan-1-one]"
10,< 50,"C=CCSC(C)C(=O)N1CCCCC1c1ncc(-c2ccc(C)cc2)[nH]1 (stereo not drawn) [Compound 92, 2-(allylthio)-1-(2-(5-(p-tolyl)-1H-imidazol-2-yl)piperidin-1-yl)propan-1-one]"
11,1000 to 35000,"CCC(C(=O)N1CCCCC1c1nc(-c2ccccc2)c[nH]1)N(C)C (stereo not drawn) [Compound 93, 2-(dimethylamino)-1-(2-(4-phenyl-1H-imidazol-2-yl)piperidin-1-yl)butan-1-one]"
12,300 to 1000,"C[C@H](C(=O)N1CCCCC1c1nc(-c2ccccc2)c[nH]1)N(C)C (stereo partly drawn) [Compound 94, (2R)-2-(dimethylamino)-1-(2-(4-phenyl-1H-imidazol-2-yl)piperidin-1-yl)propan-1-one]"
13,1000 to 35000,"O=C(Cc1ccco1)N1CCCCC1c1nc(-c2ccccc2)c[nH]1 (stereo not drawn) [Compound 96, 2-(furan-2-yl)-1-(2-(4-phenyl-1H-imidazol-2-yl)piperidin-1-yl)ethan-1-one]"
14,50 to 300,"CC(C(=O)N1CCCCC1c1nc(-c2ccccc2)c[nH]1)c1ccco1 (stereo not drawn) [Compound 97, 2-(furan-2-yl)-1-(2-(4-phenyl-1H-imidazol-2-yl)piperidin-1-yl)propan-1-one]"
15,50 to 300,O=C(Cc1ccoc1)N1CCCCC1c1nc(-c2ccccc2)c[nH]1 (stereo not drawn) [Compound 98]
16,< 50,"Cc1ccc(-c2cnc(C3CCCCN3C(=O)C(C)c3ccoc3)[nH]2)cc1 (stereo not drawn) [Compound 99, 2-(furan-3-yl)-1-(2-(5-(p-tolyl)-1H-imidazol-2-yl)piperidin-1-yl)propan-1-one]"

# More lines, now with the values behind:
row,SMILES,EC50 [nM]
1,"COc1cccc(-c2cnc(C3CCCCN3C(=O)C(C)SC)[nH]2)c1 (stereo not drawn) [Compound 68, 1-(2-(5-(3-methoxyphenyl)-1H-imidazol-2-yl)piperidin-1-yl)-2-(methylthio)propan-1-one]",50 to 300
2,"CNCc1ccc(-c2cnc(C3CCCCN3C(=O)C(C)SC)[nH]2)cc1 (stereo not drawn) [Compound 69, 1-(2-(5-(4-((methylamino)methyl)phenyl)-1H-imidazol-2-yl)piperidin-1-yl)-2-(methylthio)propan-1-one]",1000 to 35000
3,"COCCc1ccc(-c2cnc(C3CCCCN3C(=O)C(C)SC)[nH]2)cc1 (stereo not drawn) [Compound 70, 1-(2-(5-(4-(2-methoxyethyl)phenyl)-1H-imidazol-2-yl)piperidin-1-yl)-2-(methylthio)propan-1-one]",50 to 300
4,"CSC(C)C(=O)N1CCCCC1c1ncc(-c2ccc(CN)cc2)[nH]1 (stereo not drawn) [Compound 71, 1-(2-(5-(4-(aminomethyl)phenyl)-1H-imidazol-2-yl)piperidin-1-yl)-2-(methylthio)propan-1-one]",< 50
5,"CSC(C)C(=O)N1CCCCC1c1ncc(-c2ccc(N(C)C)cc2)[nH]1 (stereo not drawn) [Compound 72, 1-(2-(5-(4-(dimethylamino)phenyl)-1H-imidazol-2-yl)piperidin-1-yl)-2-(methylthio)propan-1-one]",50 to 300
6,"CSC(C)C(=O)N1CCCCC1c1ncc(-c2ccc(CO)cc2)[nH]1 (stereo not drawn) [Compound 73, 1-(2-(5-(4-(hydroxymethyl)phenyl)-1H-imidazol-2-yl)piperidin-1-yl)-2-(methylthio)propan-1-one]",300 to 1000
7,"CSC(C)C(=O)N1CCCCC1c1ncc(-c2ccc(C(C)=O)cc2)[nH]1 (stereo not drawn) [Compound 74, 1-(2-(5-(4-acetylphenyl)-1H-imidazol-2-yl)piperidin-1-yl)-2-(methylthio)propan--one]",< 50
8,"CSC(C)C(=O)N1CCCCC1c1ncc(-c2ccc(N)cc2)[nH]1 (stereo not drawn) [Compound 75, 1-(2-(5-(4-aminophenyl)-1H-imidazol-2-yl)piperidin-1-yl)-2-(methylthio)propan-1-one]",< 50
9,"CSC(C)C(=O)N1CCCCC1c1ncc(-c2ccc(Cl)c(F)c2)[nH]1 (stereo not drawn) [Compound 76, 1-(2-(5-(4-chloro-3-fluorophenyl)-1H-imidazol-2-yl)piperidin-1-yl)-2-(methylthio)propan-1-one]",< 50
10,"CSC(C)C(=O)N1CCCCC1c1ncc(-c2ccc(Cl)cc2)[nH]1 (stereo not drawn) [Compound 77, 1-(2-(5-(4-chlorophenyl)-1H-imidazol-2-yl)piperidin-1-yl)-2-(methyltbio)propan-1-one]",< 50
11,"CCc1ccc(-c2cnc(C3CCCCN3C(=O)C(C)SC)[nH]2)cc1 (stereo not drawn) [Compound 78, 1-(2-(5-(4-ethylphenyl)-1H-imidazol-2-yl)piperidin-1-yl)-2-(methylthio)propan-1-one]",< 50
12,"CSC(C)C(=O)N1CCCCC1c1nnc(-c2ccc(F)cc2)[nH]1 (stereo not drawn) [Compound 79, 1-(2-(5-(4-fluorophenyl)-4H-1,2,4-triazol-3-yl)piperidin-1-yl)-2-(methylthio)propan-1-one]",< 50
13,"COc1ccc(-c2cnc(C3CCCCN3C(=O)C(C)SC)[nH]2)c(C)c1 (stereo not drawn) [Compound 80, 1-(2-(5-(4-methoxy-2-methylphenyl)-1H-imidazol-2-yl)piperidin-1-yl)-2-(methylthio)propan-1-one]",< 50
14,"COc1ccc(-c2cnc(C3CCCCN3C(=O)C(C)SC)[nH]2)cc1 (stereo not drawn) [Compound 81, 1-(2-(5-(4-methoxyphenyl)-1H-imidazol-2-yl)piperidin-1-yl)-2-(methylthio)propan-1-one]",< 50
